Test results published in ChEMBL document CHEMBL1201862, “PubChem BioAssay data set” (2004).
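Method: 48-hour compound exposure of cells in 96-well plates, five concentrations, linear interpolation of endpoints. GI50 is the concentration that inhibits growth by half.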 Activity calls are given as the source filed them. Rule as the data show it: active = GI50 up to about 1.1 µM and inactive = higher.

Legend:
Test in all cases: NCI tumour cell line growth inhibition, 48 h
[1] = system: NCI-H226
[2] = system: HOP-92
[3] = system: TK-10
[4] = system: Malme-3M
[5] = system: ACHN
[6] = system: A498
[7] = system: SK-MEL-28
[8] = system: MOLT-4
[9] = system: IGROV-1
[10] = system: OVCAR-5
[11] = system: SF-539
[12] = system: OVCAR-4
[13] = system: SK-MEL-5
[14] = system: NCI-H522
[15] = system: KM12
[16] = system: SK-OV-3
[17] = system: UACC-62
[18] = system: RXF 393
[19] = system: UACC-257
[20] = system: T47D

| SMILES | GI50 [1] | GI50 [2] | GI50 [3] | GI50 [4] | GI50 [5] | GI50 [6] | GI50 [7] | GI50 [8] | GI50 [9] | GI50 [10] | GI50 [11] | GI50 [12] | GI50 [13] | GI50 [14] | GI50 [15] | GI50 [16] | GI50 [17] | GI50 [18] | GI50 [19] | GI50 [20] |
| --- | --- | --- | --- | --- | --- | --- | --- | --- | --- | --- | --- | --- | --- | --- | --- | --- | --- | --- | --- | --- |
| c1ccc(/N=C2\c3ccsc3/C(=N/c3ccccc3)c3ccsc32)cc1 | 5.57 µM (inactive) | 2.61 µM (inactive) | 5.6 µM (inactive) | 0.344 µM (active) | 1.71 µM (inactive) | 8.11 µM (inactive) | 2.01 µM (inactive) | 1.9 µM (inactive) | 1.92 µM (inactive) | 1.67 µM (inactive) | 1.99 µM (inactive) | 1.77 µM (inactive) | 1.09 µM (active) | 1.98 µM (inactive) | 2.36 µM (inactive) | 6.59 µM (inactive) | 1.84 µM (inactive) | 1.77 µM (inactive) | 1.29 µM (inactive) | 1.52 µM (inactive) |
| CCCNC(=S)N/N=C1\C(=O)Nc2ccccc21 | > 100 µM (inactive) | > 100 µM (inactive) | > 100 µM (inactive) | > 100 µM (inactive) | > 100 µM (inactive) | > 100 µM (inactive) | > 100 µM (inactive) | > 100 µM (inactive) | > 100 µM (inactive) | > 100 µM (inactive) | > 100 µM (inactive) | > 100 µM (inactive) | > 100 µM (inactive) | > 100 µM (inactive) | > 100 µM (inactive) | > 100 µM (inactive) | > 100 µM (inactive) | > 100 µM (inactive) | > 100 µM (inactive) | > 100 µM (inactive) |
| CNC(=S)N/N=C/c1ccc([N+](=O)[O-])s1 | > 10 µM (inactive) | > 10 µM (inactive) | > 10 µM (inactive) | 7.53 µM (inactive) | > 10 µM (inactive) | > 10 µM (inactive) | > 10 µM (inactive) | > 10 µM (inactive) | > 10 µM (inactive) | > 10 µM (inactive) | > 10 µM (inactive) | > 10 µM (inactive) | > 10 µM (inactive) | > 10 µM (inactive) | 3.99 µM (inactive) | > 10 µM (inactive) | > 10 µM (inactive) | > 10 µM (inactive) | > 10 µM (inactive) | > 10 µM (inactive) |
| COc1ccc(-c2cc3ccccc3oc2=O)cc1OC | > 100 µM (inactive) | > 100 µM (inactive) | > 100 µM (inactive) | > 100 µM (inactive) | > 100 µM (inactive) | > 100 µM (inactive) | – | > 100 µM (inactive) | > 100 µM (inactive) | > 100 µM (inactive) | > 100 µM (inactive) | > 100 µM (inactive) | 81.5 µM (inactive) | > 100 µM (inactive) | > 100 µM (inactive) | 20.3 µM (inactive) | > 100 µM (inactive) | > 100 µM (inactive) | > 100 µM (inactive) | > 100 µM (inactive) |
| COc1ccc(/C=C/C=C2C(=O)NC(=S)NC2=O)cc1 | 15.7 µM (inactive) | 12.8 µM (inactive) | 2.52 µM (inactive) | 3.34 µM (inactive) | 5.08 µM (inactive) | 33.9 µM (inactive) | 1.76 µM (inactive) | 2.64 µM (inactive) | 3.91 µM (inactive) | 21 µM (inactive) | 4.41 µM (inactive) | 31.2 µM (inactive) | 13.3 µM (inactive) | – | 8.79 µM (inactive) | 17.7 µM (inactive) | 3.07 µM (inactive) | 4.35 µM (inactive) | 9.62 µM (inactive) | 34.9 µM (inactive) |
| Nc1[nH]c(Nc2ccc(Cl)c(Cl)c2)nc2ncnc1-2 | 20.6 µM (inactive) | 16.6 µM (inactive) | 13.2 µM (inactive) | 18.2 µM (inactive) | 9.89 µM (inactive) | 6.87 µM (inactive) | – | 11.7 µM (inactive) | 4.76 µM (inactive) | 25.5 µM (inactive) | 12.4 µM (inactive) | 20.3 µM (inactive) | 14.6 µM (inactive) | 15.3 µM (inactive) | 13.7 µM (inactive) | 15.3 µM (inactive) | 11.9 µM (inactive) | 4.78 µM (inactive) | 17.5 µM (inactive) | 8.55 µM (inactive) |
| CCOC(=O)[C@@]1(C(C)=O)CC(C)=C(C)C[S@@+]1[O-] | > 100 µM (inactive) | 50.2 µM (inactive) | > 100 µM (inactive) | > 100 µM (inactive) | > 100 µM (inactive) | > 100 µM (inactive) | > 100 µM (inactive) | > 100 µM (inactive) | > 100 µM (inactive) | > 100 µM (inactive) | – | > 100 µM (inactive) | – | > 100 µM (inactive) | > 100 µM (inactive) | > 100 µM (inactive) | > 100 µM (inactive) | > 100 µM (inactive) | > 100 µM (inactive) | > 100 µM (inactive) |
| CC(=O)c1ccc2c(c1)CC1(C2)Cc2cc3c(cc2C1)C(=O)CC3 (centres undefined) | 0.31 µM (active) | 4.21 µM (inactive) | 9.35 µM (inactive) | 1.35 µM (inactive) | 3.07 µM (inactive) | 0.401 µM (active) | 3.55 µM (inactive) | – | 2.67 µM (inactive) | 6.75 µM (inactive) | 0.733 µM (active) | 2.55 µM (inactive) | 0.608 µM (active) | 1.93 µM (inactive) | 0.624 µM (active) | 0.723 µM (active) | 3.29 µM (inactive) | 2.28 µM (inactive) | 11.4 µM (inactive) | 3.33 µM (inactive) |
| O=[N+]([O-])c1cc2c([N+](=O)[O-])cccc2o1 | 12.6 µM (inactive) | 17.4 µM (inactive) | 9.25 µM (inactive) | 13.6 µM (inactive) | 3.34 µM (inactive) | 22.4 µM (inactive) | 3.15 µM (inactive) | – | – | – | 2.49 µM (inactive) | 1.58 µM (inactive) | 16.7 µM (inactive) | 0.479 µM (active) | 15.2 µM (inactive) | 16.8 µM (inactive) | 13 µM (inactive) | 5.51 µM (inactive) | 6.93 µM (inactive) | 6.7 µM (inactive) |
| O=C(NNS(=O)(=O)c1ccc(Br)cc1)c1ccc(Cl)cc1NC(=O)C12CC3CC(CC(C3)C1)C2 | 16.1 µM (inactive) | 12.2 µM (inactive) | 12.5 µM (inactive) | 14.8 µM (inactive) | 16 µM (inactive) | 15.2 µM (inactive) | – | 6.62 µM (inactive) | 11.9 µM (inactive) | 18.2 µM (inactive) | 17.3 µM (inactive) | 10.6 µM (inactive) | 10.9 µM (inactive) | 12.4 µM (inactive) | 16.4 µM (inactive) | 16.4 µM (inactive) | 12.4 µM (inactive) | 15.7 µM (inactive) | 13.5 µM (inactive) | 15.2 µM (inactive) |
| Cc1cn([C@H]2C[C@](C)(CO)N(C)O2)c(=O)[nH]c1=O | > 100 µM (inactive) | > 100 µM (inactive) | > 100 µM (inactive) | > 100 µM (inactive) | > 100 µM (inactive) | > 100 µM (inactive) | > 100 µM (inactive) | > 100 µM (inactive) | > 100 µM (inactive) | > 100 µM (inactive) | – | > 100 µM (inactive) | > 100 µM (inactive) | > 100 µM (inactive) | > 100 µM (inactive) | > 100 µM (inactive) | > 100 µM (inactive) | > 100 µM (inactive) | > 100 µM (inactive) | > 100 µM (inactive) |
